From article PMC5861220, “The Cytochrome P450-Mediated Metabolism Alternation of Four Effective Lignans From Schisandra chinensis in Carbon Tetrachloride-Intoxicated Rats and Patients With Advanced Hepatocellular Carcinoma” (Frontiers in Pharmacology, 2018)

Key:
[1] = system: rat intestine (jejunum segment); test: In situ intestinal perfusion of four lignans; assay type: in vivo; settings: for Perfusate (Percent of the initial dose) / Plasma (Percent of the initial dose) / Intestine (Percent of the initial dose) / Pblood / Plumen: 50 μM, n = 3; for Perfusate (Percent of the initial dose): intestinal perfusion 60 min; for Plasma (Percent of the initial dose) / Intestine (Percent of the initial dose): intestinal perfusion; for Plasma (Percent of the initial dose): mesenteric vein blood
Description: The surgical procedures of intestinal perfusion were conducted according to those published reports (Savina et al., [1981]). Hank's balanced salt solution (HBSS, pH 7.4) with four schisandra lignans (50 μM) at 37°C was infused into the jejunum segment at rate of 0.3 mL/min. Phenol Red (50 μM) was added to serve as a nonabsorbable marker for measuring water flux. Blood samples from mesenteric vein and perfusate were collected at 5-min interval. The plasma separated by centrifugation and perfusate was stored at −20°C until HPLC-MS analysis.
The permeability of four lignans across the rat intestine was calculated based on the disappearance of parent drug from the lumen (Plumen) as well as the appearance of the drug in blood (Pblood) using the following equations (Singhal et al., [1998]):
(1) Plumen = −Q/2πrlLnCout/Cin
(1) Pblood = ΔMB/Δt/2πrl{C}
where r is the radius of the perfused intestinal lumen; l is the length of the segment; Q is the flow rate of perfusate; Cin is the concentration of drug at the start of perfusion; and Cout is the steady-state concentration of drug exiting the lumen. ΔMB/Δt is the rate of drug appearance in mesenteric blood; and {C} is the logarithmic mean concentration of drug in the lumen.

[2] = Pharmacokinetics of four lignans in rats after oral SC alcoholic extract; assay type: in vivo, rat
Description: The pharmacokinetic profiles of four lignans were studied in ALI rat after multiple oral administrations of SC alcoholic extract at dose of 1.5 g/kg/day. After the ALI rat was established, SC alcoholic extract suspended in 0.5% sodium carboxymethyl cellulose was given to ALI rats and the control via oral gavage once a day for 4 consecutive days. Before the last dosing, rats were fasted for 12 h while water was taken freely. Blood samples were collected at 0, 0.25, 0.5, 1, 2, 3, 4, 6, 8, 12, 24, 36, and 48 h after the last dosing. A cannula was surgically placed into the jugular vein for collection of blood samples (about 0.1 mL) and blood loss compensation using sterile isotonic saline in the pharmacokinetic study. Plasma was separated by centrifugation and stored at −20°C until analysis. Plasma concentrations of the four lignans were quantified using HPLC-MS analysis developed according to the reported method (Wang et al., [2008]).
Data fitting and pharmacokinetic parameter calculations were carried out using the Winnolin software. Non-compartmental analysis was used to calculate the pharmacokinetic parameters. Parameters, such as AUC and MRT, were calculated using statistical moment method.

rat liver = test: In situ hepatic perfusion of four lignans; assay type: in vivo; settings: 10 μM, n = 3; for Total amount of analyte in bile / Total amount of analyte in liver: hepatic perfusion 60 min; for AUC: perfusate AUC(0−1h)
Description: In situ liver perfusion was performed similarly as the method described previously (Uraki et al., [2016]). […] The perfusate consisted of Krebs–Hensleit buffer (pH 7.4) containing sodium taurocholate (4.75 mg/L), 1% bovine serum albumin, and glucose (1.2 g/L) was oxygenated using carbogen, 95% O2/5% CO2. The perfusate at 37°C was infused into the portal vein at a flow rate of 30 mL/min in a recirculatory manner. After 10-min equilibration, four schisandra lignans were added to the reservoir (final concentration of 10 μM). Perfusate (0.5 mL) and bile samples were collected at 0, 10, 20, 30, 40, 50, and 60 min after the addition of lignans. The same volume of blank perfusion buffer was immediately added to the reservoir after collection of the perfusate samples. After hepatic perfusion, rat was sacrificed and liver was removed, blotted dry, and weighed.

Caco-2 cell monolayer = test: Transport across Caco-2 cell monolayer; assay type: in vitro ADME; settings: for ER: ER = Papp (BL → AP)/Papp(AP → BL)
Description: Caco-2 cell (passage 38) was used in the transport experiments. Cells were seeded on polycarbonate filters (12 mm diameter, pore size […]) at 1 × 10^5/cm^2. The cell monolayer was formed 21 days post seeding when the transepithelial electrical resistance (TEER) was above 1,000 Ω• cm^2. Three concentration levels (5, 10, and 50 μM) were set for the four schisandra lignans in the study. After preincubation for 1 h at 37°C, the solution of the four lignans was respectively added to the apical (0.4 mL) or basolateral (0.6 mL) chamber for absorptive (AP → BL) and secretive (BL → AP) permeability test. At the specified timepoints (0.5, 1, 1.5 and 2 h), 50 μL samples (n = 3) were withdrawn from receiver chamber, and meanwhile, 50 μL fresh buffer was added. The four lignans were determined by HPLC-MS method.
The efflux rate (ER) was calculated by the formula ER = Papp (BL → AP)/Papp(AP → BL).

[3] = CCl4-intoxicated rats, oral SC alcoholic extract 1.5 g/kg/day for 4 days, plasma, n = 5
[4] = Control (normal) rats, oral SC alcoholic extract 1.5 g/kg/day for 4 days, plasma, n = 5

Perfusate (Percent of the initial dose) ([1]; Control rats): 92.47 ± 1.06% of the initial dose | Plasma (Percent of the initial dose) ([1]; Control rats): 0.80 ± 0.07% of the initial dose | Intestine (Percent of the initial dose) ([1]; Control rats): 1.65 ± 0.37% of the initial dose | Pblood ([1]; Control rats): 0.047 ± 0.006 × 10^−4 cm/s | Plumen ([1]; Control rats): 2.303 ± 0.163 × 10^−4 cm/s | Increase of remaining amount in perfusate ([1]; intestinal autoperfusion (60 min), CCl4-treated rats vs control): not changed | AUC(0−t) [2, 4]: 11300 ± 3870 ng·h/mL | Cmax [2, 4]: 569 ± 163 ng/mL | MRT(0−t) [2, 4]: 15.42 ± 0.29 h | Tmax [2, 4]: 5.00 ± 1.41 h | t1/2 [2, 4]: 12.39 ± 2.12 h | Total amount of analyte in bile (rat liver; Control rats): 1.48 ± 0.23 µg | Total amount of analyte in liver (rat liver; Control rats): 12.36 ± 1.65 µg | AUC (rat liver; Control rats): 4080 ± 140 ng·h/mL | Papp(AP−BL) (Caco-2 cell monolayer; 5 μM): 1.33 ± 0.12 × 10^−6 cm/s | Papp(BL−AP) (Caco-2 cell monolayer; 5 μM): 1.52 ± 0.26 × 10^−6 cm/s | ER (Caco-2 cell monolayer; 5 μM): 1.14 | Papp(AP−BL) (Caco-2 cell monolayer; 10 μM): 1.81 ± 0.35 × 10^−6 cm/s | Papp(BL−AP) (Caco-2 cell monolayer; 10 μM): 2.28 ± 0.47 × 10^−6 cm/s | ER (Caco-2 cell monolayer; 10 μM): 1.26 | Papp(AP−BL) (Caco-2 cell monolayer; 50 μM): 1.43 ± 0.35 × 10^−6 cm/s | Papp(BL−AP) (Caco-2 cell monolayer; 50 μM): 1.28 ± 0.24 × 10^−6 cm/s | ER (Caco-2 cell monolayer; 50 μM): 0.89
Substance: schisantherin A
Perfusate (Percent of the initial dose) ([1]; CCl4-intoxicated rats): 92.85 ± 1.33% of the initial dose | Plasma (Percent of the initial dose) ([1]; CCl4-intoxicated rats): 0.82 ± 0.04% of the initial dose | Intestine (Percent of the initial dose) ([1]; CCl4-intoxicated rats): 1.95 ± 0.36% of the initial dose | Pblood ([1]; CCl4-intoxicated rats): 0.060 ± 0.016 × 10^−4 cm/s | Plumen ([1]; CCl4-intoxicated rats): 2.047 ± 0.373 × 10^−4 cm/s | AUC(0−t) [2, 3]: 99600 ± 45600 ng·h/mL | CLz/F [2, 3]: 234.05 ± 115.74 L/h/kg | Cmax [2, 3]: 3190 ± 1160 ng/mL | MRT(0−t) [2, 3]: 19.84 ± 1.18 h | Tmax [2, 3]: 9.60 ± 3.29 h | t1/2 [2, 3]: 17.65 ± 3.32 h | Reduction of systemic clearance (CLz/F) ([2]; CCl4 intoxicated rats vs control rats): ~89% | Total amount of analyte in bile (rat liver; CCl4-intoxicated rats): 1.61 ± 0.34 µg | Total amount of analyte in liver (rat liver; CCl4-intoxicated rats): 17.15 ± 1.84 µg | AUC (rat liver; CCl4-intoxicated rats): 4790 ± 30 ng·h/mL
